Data from patent US6335443B1, “Chemical synthesis of exochelins” (Keystone Biomedical, Inc., priority 1998, dated 2002).
Several values for one entry are separate records, joined by “and”; a condition that tells them apart may be missing. Equal values may be shown once.

Columns and labels:
ferri-Exochelin 758SM [1] = assay: Capacity to remove iron from Ferri-Exochelin 758SM in the same vial (772SM(R) vs 772SM(S)); type: binding; conditions: Table 3
Procedure: To further assess the relative affinities of the stereoisomers desferri-Exochelin 772SM(R) and 772SM(S) for iron, their capacity to remove iron from a different exochelin species in the same vial were compared.
In the experiment,15.6 μg of 1.1% iron-saturated synthetic Exochelin 772SM(R) and 17.4 μg of 1.0% iron-saturated synthetic Exochelin 772SM(S) was mixed with 13.5 μg of 100% iron-saturated native Exochelin 758SM.

[2] = molecular target: human apotransferrin (<0.7% iron-saturated) (Homo sapiens, UniProt P02787); assay: Control incubation with human apotransferrin (<0.7% iron-saturated); type: biochemical; conditions: apotransferrin 38 mg/ml, listed as Synthetic Desferri-Exochelin 772SM(R)
Procedure: (§1) A. 40% Iron-Saturated Human Transferrin. To assess the capacity of the 3 different desferri-Exochelins to remove iron from 40% iron-saturated human transferrin, each of them was incubated for 1, 3, and 24 hours with 40% iron-saturated transferrin such that the ratio of Fe^3+: desferri-Exochelin equaled 10:1. The incubation was carried out in PBS, pH 7.4. Afterwards, the Exochelin and transferrin were separated from each other by centrifugation through a 10,000 dalton cut-off filter. The transferrin (mass 76,000 daltons) was completely excluded by this filter whereas 85% of the Exochelin (mass<1,000) was recovered in the filtrate. To determine the total amount of exochelin recovered, the exochelin in the filtrate was saturated with a 20:1 molar excess of ferric ammonium citrate and subjected to reverse-phase HPLC as described above. To determine the amount of iron-saturated Exochelin in the filtrate at each time point, the filtrate was subjected to reverse-phase HPLC without the addition of iron. The % iron-saturation was calculated as follows: [formula]
C. Apotransferrin (<0.7% Iron-Saturated Human Transferrin). As a control, the three desferri-exochelins were incubated for 3 h and 24 h with human apotransferrin (<0.7% iron-saturated) at a concentration of 38 mg/ml, the same concentration of protein as in the study utilizing 92% iron-saturated transferrin in B above. None of the desferri-exochelins acquired appreciable amounts of iron (Table 6).

ferri-Exochelin 758SM [3] = assay: Capacity to remove iron from a different Exochelin species (Ferri-Exochelin 758SM); type: binding
Procedure: C. Capacity to Remove Iron from a Different Exochelin Species. To assess the affinity of the synthetic desferri-Exochelin 772SM(R) for iron, its capacity to remove iron from a different Exochelin species, ferri-Exochelin 758SM, was evaluated. The capacity of synthetic and native desferri-Exochelin 772SM(R) to remove iron from ferri-Exochelin 758SM was also evaluated and compared. Either native or synthetic desferri-Exochelin 772SM(R) were independently mixed with ferri-Exochelin 758SM. The amount of iron acquired in 1 hour by the desferri-Exochelins was assayed by subjecting the Exochelin to reverse-phase HPLC on a phenyl column, as described above, and the area under the 450 nm absorbance peak was measured. The amount of iron-Exochelin was then calculated using a conversion factor derived from assaying known amounts of ferri-Exochelin 772SM(R).
C. Capacity to Remove Iron from a Different Exochelin Species. To assess the affinity of the synthetic desferri-Exochelin 772SM(S) for iron, its capacity to remove iron from a different exochelin species, ferri-Exochelin 758SM was evaluated. The capacity of synthetic desferri-Exochelin 772SM(S) and native desferri-Exochelin 772SM(R) to remove iron from ferri-Exochelin 758SM was also evaluated and compared. Either synthetic desferri-Exochelin 772SM(S) or native desferri-Exochelin 772SM(R) was mixed with ferri-Exochelin 758SM. The amount of iron acquired by the desferri-exochelins after 1 hour was assayed by subjecting the molecule to reverse-phase HPLC on a phenyl column, as described above, and the area under the 450 nm absorbance peak was measured. The amount of iron-exochelin was then calculated using a conversion factor derived from assaying known amounts of ferri-Exochelin 772SM(R) and ferri-Exochelin 772SM(S).

[4] = Capacity to chelate iron from ferric ammonium citrate solution (reverse-phase HPLC, 450 nm); type: binding
Procedure: A. Capacity to Chelate Iron. To determine if the synthetic desferri-Exochelin 772SM(R) could chelate iron, as does the native form, the Exochelin was dissolved in 0.1% TFA containing ferric ammonium citrate at a 10-fold molar excess of iron to Exochelin. The solution was then loaded on a Bondapak Phenyl 125 Å 10 μm (3.9×300 mm) HPLC column and the Exochelin was subjected to reverse-phase HPLC (High Pressure Liquid Chromatography) on a Rainin (Woburn, Mass.) HPXL system. The Exochelin was eluted with a 0-100% gradient of a buffer consisting of 0.1% TFA and 50% acetonitrile at a flow rate of 1 ml/min. The ferri-exochelins were monitored at 220-nm and 450-nm absorbance. The mass of ferri-exochelin was assayed by measuring the area under the peak at 450-nm and applying a conversion factor derived from assaying known amounts of ferri-exochelin 772SM(R).
A. Capacity to Chelate Iron. The capacity of synthetic Exochelin 772SM(S) to chelate iron from a solution containing a 10-fold molar excess of ferric iron (ferric ammonium citrate) was assayed as described above.

[5] = molecular target: 40% iron-saturated human transferrin (Homo sapiens, UniProt P02787); assay: Capacity to remove iron from 40% iron-saturated human transferrin; type: biochemical; conditions: Fe3+:desferri-Exochelin 10:1, PBS pH 7.4
Procedure: as §1

[6] = molecular target: holo-transferrin (92% iron-saturated human transferrin) (Homo sapiens, UniProt P02787); assay: Capacity to remove iron from holo-transferrin (92% iron-saturated human transferrin); type: biochemical; conditions: Fe3+:desferri-Exochelin 10:1
Procedure: as §1
B. Holo-Transferrin (92% Iron-Saturated Human Transferrin). To assess the capacity of the 3 different desferri-Exochelins to remove iron from holo-transferrin (92% iron-saturated human transferring, each of them was incubated for 1, 3, and 24 h with 92% iron-saturated transferrin such that the ratio of Fe^3+: desferri-Exochelin equaled 10:1, as in the aforementioned study with 40% iron-saturated transferrin. The % iron-saturation of the Exochelins was assayed as above.

[7] = listed as synthetic desferri-exochelin 772SM(R)

Sequence of 40% iron-saturated human transferrin (P02787 20-698): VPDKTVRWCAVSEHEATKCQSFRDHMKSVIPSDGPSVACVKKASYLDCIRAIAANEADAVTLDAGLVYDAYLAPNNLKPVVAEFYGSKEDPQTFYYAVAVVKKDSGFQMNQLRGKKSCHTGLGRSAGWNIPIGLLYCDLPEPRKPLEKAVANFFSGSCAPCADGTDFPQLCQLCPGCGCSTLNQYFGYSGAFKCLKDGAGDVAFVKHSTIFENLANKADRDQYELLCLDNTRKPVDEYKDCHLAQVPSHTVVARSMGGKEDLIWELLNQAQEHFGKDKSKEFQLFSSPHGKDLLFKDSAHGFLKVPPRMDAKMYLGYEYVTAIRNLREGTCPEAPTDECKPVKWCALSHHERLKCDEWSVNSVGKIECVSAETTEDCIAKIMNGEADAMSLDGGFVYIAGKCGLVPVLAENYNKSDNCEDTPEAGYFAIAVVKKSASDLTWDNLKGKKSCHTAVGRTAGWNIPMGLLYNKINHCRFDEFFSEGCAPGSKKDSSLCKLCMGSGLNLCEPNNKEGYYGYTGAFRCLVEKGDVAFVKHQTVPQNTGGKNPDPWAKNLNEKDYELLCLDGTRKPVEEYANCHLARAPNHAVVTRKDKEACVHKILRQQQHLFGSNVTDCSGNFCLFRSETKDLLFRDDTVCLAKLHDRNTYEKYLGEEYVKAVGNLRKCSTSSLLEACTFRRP
Sequence of holo-transferrin (92% iron-saturated human transferrin) (P02787 20-698): as above
Sequence of human apotransferrin (<0.7% iron-saturated) (P02787 20-698): as above

- Iron-Saturation 0 h ([2]; 0 h): 1.1%
- Iron-Saturation 3 h ([2]; 3 h): 5.2%
- Iron-Saturation 24 h ([2]; 24 h): 6.9%
- Iron-Saturation 1 h ([5]; 1 h, listed as Synthetic Desferri-Exochelin 772SM(R)): 6.8%
- Iron-Saturation 3 h ([5]; 3 h, listed as Synthetic Desferri-Exochelin 772SM(R)): 12.8%
- Iron-Saturation 24 h ([5]; listed as Synthetic Desferri-Exochelin 772SM(R)): 39.2%
- Iron-Saturation 24 h [5, 7]: 39.2%
- Iron-Saturation 0 h ([6]; 0 h, listed as Synthetic Desferri-Exochelin 7728M(R)): 1.1%
- Iron-Saturation 1 h ([6]; 1 h, listed as Synthetic Desferri-Exochelin 7728M(R)): 13.6%
- Iron-Saturation 3 h ([6]; 3 h, listed as Synthetic Desferri-Exochelin 7728M(R)): 31.5%
- Iron-Saturation 24 h ([6]; listed as Synthetic Desferri-Exochelin 7728M(R)): 60.0%
- Iron-Saturation 24 h [6, 7]: 60.0%
SMILES: COC(=O)CCCCCC(=O)N(O)CCCCC(NC(=O)C1COC(c2ccccc2O)=N1)C(=O)OC(C)CC(=O)NC1CCCCN(O)C1=O [Synthetic 772SM(R), Exochelin 772SM(R)]
- % Iron-Saturation 0 hour (ferri-Exochelin 758SM [1]; 0 hour, 772SM(R), 772SM(S) and 758SM in the same vial): 1.1%
- % of Calculated Iron-Saturation at Equilibrium 0 hour (ferri-Exochelin 758SM [1]; 0 hour, same vial, assuming comparable affinities): 3.7%
- % Iron-Saturation 1 hour (ferri-Exochelin 758SM [1]; 772SM(R), 772SM(S) and 758SM in the same vial): 28.2%
- % Iron-Saturation 1 hour (ferri-Exochelin 758SM [1]; 772SM(R), 772SM(S) and 758SM in the same vial, listed as synthetic Exochelin 772SM(R)): 28.2%
- % of Calculated Iron-Saturation at Equilibrium 1 hour (ferri-Exochelin 758SM [1]; same vial, assuming comparable affinities): 94.3%
- % of Calculated Iron-Saturation at Equilibrium 1 hour (ferri-Exochelin 758SM [1]; same vial, assuming comparable affinities, listed as synthetic Exochelin 772SM(R)): 94.3%
- % of Calculated Iron-Saturation at Equilibrium 0 h (ferri-Exochelin 758SM [3]; Table 1, 0 h, assuming comparable affinities for iron, 17.3 µg 772SM(R), Experiment II): 2.0%
- % of Calculated Iron-Saturation at Equilibrium 0 h (ferri-Exochelin 758SM [3]; Table 1, 0 h, assuming comparable affinities for iron, 26.1 µg 772SM(R), Experiment I): 2.7%
- % Iron-Saturation 0 h (ferri-Exochelin 758SM [3]; Table 1, 0 h, mixed with ferri-Exochelin 758SM): 1.1%
- % of Calculated Iron-Saturation at Equilibrium 1 h (ferri-Exochelin 758SM [3]; Table 1, assuming comparable affinities for iron, 17.3 µg 772SM(R), Experiment II): 90.2%
- % of Calculated Iron-Saturation at Equilibrium 1 h (ferri-Exochelin 758SM [3]; Table 1, assuming comparable affinities for iron, 26.1 µg 772SM(R), Experiment I): 81.3%
- % of Calculated Iron-Saturation at Equilibrium 1 h (ferri-Exochelin 758SM [3]; Table 1, assuming comparable affinities for iron, listed as synthetic Exochelin 772SM(R)): 81.3% and 90.2%
- % Iron-Saturation 1 h (ferri-Exochelin 758SM [3]; Table 1, mixed with ferri-Exochelin 758SM, 17.3 µg 772SM(R), Experiment II): 48.6%
- % Iron-Saturation 1 h (ferri-Exochelin 758SM [3]; Table 1, mixed with ferri-Exochelin 758SM, 26.1 µg 772SM(R), Experiment I): 33.5%
- % Iron-Saturation 1 h (ferri-Exochelin 758SM [3]; Table 1, mixed with ferri-Exochelin 758SM, listed as synthetic Exochelin 772SM(R)): 33.5% and 48.6%
- % of Calculated Iron-Saturation at Equilibrium 0 hour (ferri-Exochelin 758SM [3]; Table 2, 0 hour, assuming comparable affinities for iron): 2.3%
- % Iron-Saturation 0 hour (ferri-Exochelin 758SM [3]; Table 2, 0 hour, mixed with ferri-Exochelin 758SM): 1.1%
- % of Calculated Iron-Saturation at Equilibrium 1 hour (ferri-Exochelin 758SM [3]; Table 2, assuming comparable affinities for iron): 90.7%
- % of Calculated Iron-Saturation at Equilibrium 1 hour (ferri-Exochelin 758SM [3]; Table 2, assuming comparable affinities for iron, listed as synthetic Exochelin 772SM(R)): 90.7%
- % Iron-Saturation 1 hour (ferri-Exochelin 758SM [3]; Table 2, mixed with ferri-Exochelin 758SM): 42.9%
- % Iron-Saturation 1 hour (ferri-Exochelin 758SM [3]; Table 2, mixed with ferri-Exochelin 758SM, listed as synthetic Exochelin 772SM(R)): 42.9%
- affinity for iron (in words) (ferri-Exochelin 758SM [3]; removal of iron from ferri-Exochelin 758SM within 1 h): very high affinity for iron
- ferri-exochelin eluted from the HPLC column, % of the Exochelin added ([4]; absence of ferric ammonium citrate, listed as synthetic desferri-Exochelin 772SM(R)): 1.08%
- capacity to chelate iron (in words) ([4]; ferric iron in solution, listed as synthetic desferri-exochelin 772SM(R)): rapidly chelates ferric iron in solution
- exochelin eluted from the column in the ferri form ([4]; presence of ferric ammonium citrate, 10-fold molar excess of iron, listed as synthetic desferri-Exochelin 772SM(R)): 100%
